Experimental data: US20090325202A1, “Methods for Developing and Assessing Therapeutic Agents” (priority 2006, published 2009)

Tests used:
[1] = test system: ERK1/2; test: Phospho-/total ERK1/2 ELISA in EGF-stimulated T-47D cell smears; format: cell-based, human; conditions: T-47D cells, AG1478 0.5 uM, PD98059 20 uM
Procedure: T47D cells were maintained in Dulbecco's modified Eagle's medium (Life Technologies, Inc.) supplemented with 10% fetal calf serum and antibiotics (Life Technologies, Inc.). Prior to EGF (Sigma) stimulation, cells were starved for 24 h in serum-free medium.
(§1) Total cell lysates were obtained from either cells cultured in vitro or from tumor FNAB samples. Protein extracts were resolved by 4-15% SDS-PAGE and probed with Rabbit anti-EGFR, anti-phospbo-EGFR, anti-ERK1 and anti-phospho-ERK antibodies obtained from New England Biolabs (Beverly, Mass.). Immunoreactive proteins were visualized by enhanced chemiluminescence (Amersham International, United Kingdom). Total and phospho-ERK1/2 proteins were quantified by sandwich [LISA kits (BioSource International, Camarillo, Calif., USA) as described in the manufacturer's protocols. The reaction was read at 450 nm in an ELISA plate reader.
Western blot analysis of protein samples is a conventional method for phosphoprotein analysis. However, Western blot analysis is limited in throughput and quantitative precision, and also requires large sample amounts. […] Therefore, it was tested if quantitative ELISA assays can be applied to cytologic samples to increase the assay sensitivity to measure the expression levels and activation status of specific signaling pathways. […]

[2] = test system: ERK1/2; test: Ex vivo treatment of human breast cancer cells obtained by FNAB, ERK1/2 phosphorylation; format: cell-based; conditions: 3 hours, AG1478 0.5 uM, PD98059 20 uM
Procedure: (§2) To obtain cancer cells cancer tumor tissue was sampled four times with a sterile 25G short needle and tumor samples were immediately transferred into 10 ml sterile prewarmed complete RPMI-1640 culture medium containing 10% fetal calf serum, penicillin (200 ug/ml) and streptomycin (200 ug/nil). After centrifugation and cells were resuspended and distributed in 6-well microculture plates and treated in duplicates with vehicle alone (DMSO control), an EGFR inhibitor AG1478 (0.5 uM) (Calbiochem, 658548), a MEK/ERK inhibitor PD98059 (20 uM) (Biosource International, PHZ 1164) or with a PI3K/AKT inhibitor LY294002 (10 uM) (Biosource International, PHZI 144) in a humidified 5% CO2 incubator at 37° C. for 3 hours.
(§3) Following treatment nonadherent and adherent cells (collected by scraping) were pooled together in a 1.5 ml microcentrifuge tube and centrifuged at 500×g for 5 min at 4° C. After washing with PBS, cells were lysed in 100 μl of ice-cold lysis buffer and therapy-induced changes n the expression and phosphorylation levels of AKT and ERK1/2 were detected by Western blot.

[3] = test system: AKT; test: Ex vivo treatment of human breast cancer cells obtained by FNAB, AKT phosphorylation; format: cell-based; conditions: 3 hours, AG1478 0.5 uM, LY294002 10 uM
Procedure: as §2, §3

[4] = test system: ERK1/2; test: Panc 265 xenograft FNAB cells treated ex vivo, ERK1/2 phosphorylation; format: cell-based, human; conditions: Panc 265 FNAB cells; ZD1839 5 uM; 6 hours
Procedure: (§4) To obtain cancer cells, each animal tumor was sampled as described above. After collection of tumor FNAB samples, xenograft animals were subsequently treated with ZD1839 or CCI-779 for 28 days and tumor volumes were determined as described above. At day 7 of therapy, AD/DQ slides were prepared from tumor FNAB samples to retrospectively correlate the results of in vivo and ex vivo chemosentitivty tests from the same xenograft animal.
To determine viability of tumor cells obtained by FNAB, trypan blue dye exclusion assay was performed. The viability of tumor cells obtained by tumor FNAB from control animals was over 95%. Approximately 75,000 tumor cells were seeded into each well of a 6-well polypropylene microplate. Cells were treated in duplicates with vehicle (control) or with ZD1839 (5 uM) or CCI-779 (1 uM) in a humidified 5% CO2 incubator at 37° C. for different periods to determine the optimal treatment time to analyze drug effects.
(§5) After the treatment cells were collected, protein extracts were prepared and Western blot analysis was performed as described above. The ex vivo effect of ZD 1839 and CCI-779 on phosphorylation of ERK1/2 or S6 ribosomal proteins, respectively, was correlated with the in vivo data gathered from the FNAB smears prepared at day 7 of treatment.

[5] = test system: ERK1/2; test: HuCCT-1 xenograft tumor FNAB phospho-/total ERK1/2 ELISA; format: in vivo, human
Procedure: (§6) Four to 6-week-old female athymic (nu+/nu+) mice were purchased from Harlan (Harlan Laboratories, Washington, D.C.). The research protocol was approved by the Johns Hopkins University Animal Care Committee and animals were maintained in accordance with the guidelines of the American Association of Laboratory Animal Care. […] Mice were monitored daily for signs of toxicity and were weighed three times per week. Tumor size was evaluated three times per week by caliper measurements using the following formula: tumor volume=[length×width^2]/2. Tumor growth inhibition was calculated by tumor volume of treated mice divided by tumor volume of control mice. Experiments were terminated on day 14.
as §1, with “Protein extracts were resolved by 4-15% SDS-PAGE and probed with Rabbit anti-EGFR, anti-phospbo-EGFR, anti-ERK1 and anti-phospho-ERK antibodies obtained from New England Biolabs (Beverly, Mass.).” left out
Western blot analysis of protein samples is a conventional method for phosphoprotein analysis, but is limited in throughput, quantitative precision and requires large sample amounts. ELISA assays offer alternatives to Western blot with higher throughput and increased sensitivity. […] For this purpose the tumor FNAB samples, which have been analyzed on Western blot above (FIG. 16A), were used to assess the expression and phosphorylation of ERK1/2 proteins by the total and phospho-specific ERK1/2 ELISA assays, respectively.
The amounts of phosphorylated ERK1/2 were normalized for the total contents of these proteins in each sample group and therapy-mediated changes in their phosphorylation status were quantified.

[6] = test system: ERK1/2; test: HuCCT-1 xenograft tumor FNAB Western blot, ERK1/2 activity; format: in vivo, human; conditions: in vivo
Procedure: as §6
Fine needle aspirates were obtained with a 25G needle and 10 ml syringe, passing the needle through the tumor 10 times with application of 1-2 ml suction The aspirated material was expressed onto clear glass slides and smeared. All smears were allowed to air dry and then stained with Diff-Quik stain (Baxter Healthcare, Miami, Fla.). Five to ten AD/DQ-stained cytological smears were prepared from each tumor sample. The cellular composition of each aspirate was assessed by cytopathologists.
as §1, with “Protein extracts were resolved by 4-15% SDS-PAGE and probed with Rabbit anti-EGFR, anti-phospbo-EGFR, anti-ERK1 and anti-phospho-ERK antibodies obtained from New England Biolabs (Beverly, Mass.).” left out
Next, whether FNAB samples obtained from tumor tissue at the early stage of therapy can be used to predict tumor response was examined. […] Expression and phosphorylation levels of ERK 1/2 were analyzed on Western blot by using extracts prepared from AD/DQ-stained FNAB samples.

[7] = test system: HuCCT-1 tumors; test: HuCCT-1 xenograft tumor growth; format: in vivo, athymic (nu+/nu+) mice; conditions: single agents: gefitinib 150 mg/Kg i.p. days 1-5 and 8-12, CI-1040 150 mg/Kg twice a day oral days 1-14
Procedure: as §6
To explore the feasibility of implementing this method in in vivo studies, mouse xenografts were next employed to test whether FNAB material obtained from tumor tissue can be utilized to monitor and predict therapy response in vivo. For this purpose HuCCT-1 cholangiocarcinoma cells were used to create a xenograft mouse model of human cholangiocarcinoma. […] Tumor volumes were measured and compared with tumors from animals that received drug vehicle alone.

[8] = test system: ERK1/2; test: Panc 265 xenograft in vivo FNAB smears, ERK1/2 activity; parameters: species or system human; conditions: ZD1839 150 mg/Kg daily i.p., FNAB day 7
Procedure: Animals were either untreated or treated with ZD1839: 150 mg/Kg daily or CCI-779: 20 mg/kg days 1-5 by intraperitoneal injection
as §4, §5

Row | SMILES | inhibition of EGF-induced ERK1/2 phosphorylation (phospho-ELISA normalized for total ERK1/2) [1] | phosphorylation of ERK1/2 [2] | phosphorylation of AKT [3] | ERK1/2 phosphorylation ex vivo [4] | phosphorylation levels of ERK1/2 by phospho-ERK1/2 ELISA (raw data) ([5]; HuCCT-1 tumor FNAB samples of treated animals) | increase of ERK1/2 phosphorylation (normalized for total ERK1/2) ([5]; HuCCT-1 tumor FNAB, gefitinib alone) | ERK1/2 activity, serial FNAB sampling [6] | decrease in tumor volume [7] | ERK1/2 activity in vivo [8]
1 | COc1cc2ncnc(Nc3cccc(Cl)c3)c2cc1OC [AG1478] | 80% | reduced the phosphorylation of both ERK1/2 and AKT proteins | reduced the phosphorylation of both ERK1/2 and AKT proteins | – | – | – | – | – | –
2 | COc1cc2ncnc(Nc3ccc(F)c(Cl)c3)c2cc1OCCCN1CCOCC1 [gefitinib, Gefitinib] | – | – | – | failed to block ERK1/2 phosphorylation | neither gefitinib nor CI-1040 treatment alone caused any significant change | 17% | neither of these agents alone caused inhibition | 4% | failed to block ERK1/2 activity
